These results are taken from PMC9456463, “Intelligent Drug Delivery by Peptide-Based Dual-Function Micelles” (International Journal of Molecular Sciences, 2022).

This data set concerns 4T1 mouse breast cancer cell xenografted model. Briefly: In vivo antitumor efficacy, 4T1 mouse breast cancer xenografted model. To be noted: BALB/c female mice, 4T1 tumor. The procedure: All animal experiments were performed complying with the guidelines for the care and use of laboratory animals of the Peking University Animal Study Committee’s requirements. Experimental procedures were carried out by a protocol approved for institutional animal care. A total of 24 BALB/c female mice (5–6 weeks) were used in this study. The PBS suspension containing 2.5 × 10^4 4T1 cells was injected subcutaneously into female BALB/c mice. […] The body weight and tumor volume of each mouse were measured at regular intervals to evaluate the antitumor effects and toxicity of different drugs. […] One mouse from each group was randomly selected, and its major organs and tumor tissues were collected, then Hematoxylin and Eosin (H&E) staining were utilized to evaluate the degree of apoptosis in mice.

`COc1cccc2c1C(=O)c1c(O)c3c(c(O)c1C2=O)C[C@@](O)(C(=O)CO)C[C@@H]3O[C@H]1C[C@H](N)[C@H](O)[C@H](C)O1` [DOX, Doxorubicin]: the “body weight change during treatment” value (tail vein injection) is “decreased significantly”. Besides, the final tumor weight reads like this: (tail vein injection on days 0, 4, 8, 12) 0.47 g; (tail vein injection on days 0, 4, 8, 12, listed as free DOX) 0.67 g. In addition, the “tumor volume increase after 14 days” value (tail vein injection on days 0, 4, 8, 12, group sacrificed on the 14th day) stood at 11.03 fold.
